Measured values: ChEMBL document CHEMBL3632504, “Discovery of 1H-pyrazolo[3,4-b]pyridines as potent dual orexin receptor antagonists (DORAs)” (Bioorg Med Chem Lett, 2015)
Values after ≈ are worked out from the molar mass of the structure shown. Values belong to the compound of their own block, whether it stands above or below them.

What was measured:
[1] = Equilibrium solubility of the compound at pH 6.8; assay type: physicochemical; conditions: buffer
[2] = Octanol/water partition coefficient, logP of the compound; assay type: physicochemical
[3] = species on record: Homo sapiens; test: Selectivity ratio of Ki for human orexin 1 receptor to Ki for human orexin 2 receptor
[4] = Intrinsic clearance in rat liver microsomes; assay type: ADME; conditions: read-out: CLH
[5] = molecular target: T1, Orexin/Hypocretin receptor type 1 (Homo sapiens, UniProt O43613)
T1 sequence (O43613 whole entry): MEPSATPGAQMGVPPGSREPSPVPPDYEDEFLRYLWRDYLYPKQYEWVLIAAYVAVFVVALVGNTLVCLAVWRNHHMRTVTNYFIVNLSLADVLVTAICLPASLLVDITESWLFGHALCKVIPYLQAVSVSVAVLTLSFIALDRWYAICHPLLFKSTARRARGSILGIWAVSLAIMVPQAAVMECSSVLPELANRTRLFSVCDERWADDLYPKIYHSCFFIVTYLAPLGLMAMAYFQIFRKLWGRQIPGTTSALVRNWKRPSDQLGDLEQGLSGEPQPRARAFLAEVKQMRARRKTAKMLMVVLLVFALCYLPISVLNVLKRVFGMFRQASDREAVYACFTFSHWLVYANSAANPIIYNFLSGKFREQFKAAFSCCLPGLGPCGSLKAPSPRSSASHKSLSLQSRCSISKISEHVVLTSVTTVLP
Description: Antagonist activity against human orexin 1 receptor after 1 hr by Ca2+ sensitive Fluo4-AM fluorescent dye-based FLIPR assay

[6] = molecular target: T2, Orexin receptor type 2 (Homo sapiens, UniProt O43614); test: Antagonist activity against human orexin 2 receptor after 1 hr by Ca2+ sensitive Fluo4-AM fluorescent dye-based FLIPR assay; assay type: functional
T2 sequence (O43614 whole entry): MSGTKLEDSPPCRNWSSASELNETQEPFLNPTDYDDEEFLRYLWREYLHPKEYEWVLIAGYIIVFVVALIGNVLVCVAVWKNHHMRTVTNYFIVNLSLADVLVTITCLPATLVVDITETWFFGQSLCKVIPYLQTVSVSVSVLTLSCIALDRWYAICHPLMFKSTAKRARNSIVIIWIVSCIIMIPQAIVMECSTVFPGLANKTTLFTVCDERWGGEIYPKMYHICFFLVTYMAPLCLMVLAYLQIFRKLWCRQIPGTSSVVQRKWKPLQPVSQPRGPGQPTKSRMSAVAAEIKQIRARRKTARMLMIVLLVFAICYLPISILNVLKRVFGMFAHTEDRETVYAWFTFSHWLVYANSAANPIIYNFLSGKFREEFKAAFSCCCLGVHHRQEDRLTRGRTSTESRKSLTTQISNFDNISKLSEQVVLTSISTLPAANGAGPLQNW

[7] = system: MDR1; test: Efflux ratio of permeability from basolateral to apical side over apical to basolateral side in MDCK cells expressing MDR1; assay type: ADME, cell-based, Canis lupus familiaris; conditions: dog
[8] = molecular target: T2, Orexin receptor type 2; test: Displacement of [125l]orexin A from human orexin 2 receptor expressed in CHO cells after 1 hr; assay type: cell-based
[9] = molecular target: T1, Orexin/Hypocretin receptor type 1; test: Displacement of [125l]orexin A from human orexin 1 receptor expressed in CHO cells after 1 hr; assay type: cell-based
[10] = Intrinsic clearance in human liver microsomes; assay type: ADME; conditions: read-out: CLH
[11] = molecular target: Voltage-gated inwardly rectifying potassium channel KCNH2 (Homo sapiens, UniProt Q12809); test: Binding affinity to human ERG
Voltage-gated inwardly rectifying potassium channel KCNH2, sequence (Q12809 whole entry): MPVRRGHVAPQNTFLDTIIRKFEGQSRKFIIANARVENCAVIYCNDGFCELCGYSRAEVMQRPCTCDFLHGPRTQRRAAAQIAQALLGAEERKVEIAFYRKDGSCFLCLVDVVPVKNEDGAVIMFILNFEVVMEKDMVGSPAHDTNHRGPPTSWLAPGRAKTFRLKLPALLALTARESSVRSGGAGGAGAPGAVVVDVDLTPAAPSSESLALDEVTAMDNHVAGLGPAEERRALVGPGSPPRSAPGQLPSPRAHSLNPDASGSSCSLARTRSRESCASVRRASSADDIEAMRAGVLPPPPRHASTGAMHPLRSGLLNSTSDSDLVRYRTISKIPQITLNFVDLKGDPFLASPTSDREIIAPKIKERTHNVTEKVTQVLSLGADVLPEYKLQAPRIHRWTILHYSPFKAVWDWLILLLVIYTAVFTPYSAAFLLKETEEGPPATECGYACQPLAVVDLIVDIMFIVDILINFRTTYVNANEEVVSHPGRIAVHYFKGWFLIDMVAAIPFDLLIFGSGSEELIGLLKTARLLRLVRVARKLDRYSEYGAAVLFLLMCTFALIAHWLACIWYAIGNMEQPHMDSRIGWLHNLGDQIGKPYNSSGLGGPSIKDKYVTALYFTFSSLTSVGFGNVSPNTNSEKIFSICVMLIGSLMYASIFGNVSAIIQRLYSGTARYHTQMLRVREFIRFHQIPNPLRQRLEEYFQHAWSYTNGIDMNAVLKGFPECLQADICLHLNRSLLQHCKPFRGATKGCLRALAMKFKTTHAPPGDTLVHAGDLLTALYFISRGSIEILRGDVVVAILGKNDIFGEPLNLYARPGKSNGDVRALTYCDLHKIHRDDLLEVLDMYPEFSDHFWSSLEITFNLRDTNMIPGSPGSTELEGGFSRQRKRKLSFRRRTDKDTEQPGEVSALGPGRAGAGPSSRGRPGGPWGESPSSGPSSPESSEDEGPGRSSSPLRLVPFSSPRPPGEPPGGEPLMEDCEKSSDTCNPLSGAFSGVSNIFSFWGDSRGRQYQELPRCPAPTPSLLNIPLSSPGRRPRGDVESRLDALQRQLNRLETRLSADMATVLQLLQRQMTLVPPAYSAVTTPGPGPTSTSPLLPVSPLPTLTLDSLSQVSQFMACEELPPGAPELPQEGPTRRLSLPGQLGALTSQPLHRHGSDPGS

[12] = system: Plasma; test: Fraction unbound in mouse plasma; assay type: ADME, cell-free
[13] = Intrinsic clearance in mouse liver microsomes; assay type: ADME; conditions: read-out: CLH
[14] = Oral bioavailability in mouse at 3 mg/kg administered through cassette dosing; assay type: ADME, organism-based; conditions: in vivo
[15] = Volume of distribution at steady state in mouse at 1 mg/kg, iv administered through cassette dosing; assay type: ADME, organism-based; conditions: in vivo, read-out: Vdss
[16] = system: Blood; test: Dose-normalized Cmax in mouse blood at 3 mg/kg, po administered through cassette dosing; assay type: ADME, organism-based; conditions: in vivo
[17] = Permeability of the compound by PAMPA; assay type: physicochemical
[18] = molecular target: Cytochrome P450 3A4 (Homo sapiens, UniProt P08684); test: Inhibition of CYP3A4 (unknown origin); assay type: ADME
Cytochrome P450 3A4, sequence (P08684 whole entry): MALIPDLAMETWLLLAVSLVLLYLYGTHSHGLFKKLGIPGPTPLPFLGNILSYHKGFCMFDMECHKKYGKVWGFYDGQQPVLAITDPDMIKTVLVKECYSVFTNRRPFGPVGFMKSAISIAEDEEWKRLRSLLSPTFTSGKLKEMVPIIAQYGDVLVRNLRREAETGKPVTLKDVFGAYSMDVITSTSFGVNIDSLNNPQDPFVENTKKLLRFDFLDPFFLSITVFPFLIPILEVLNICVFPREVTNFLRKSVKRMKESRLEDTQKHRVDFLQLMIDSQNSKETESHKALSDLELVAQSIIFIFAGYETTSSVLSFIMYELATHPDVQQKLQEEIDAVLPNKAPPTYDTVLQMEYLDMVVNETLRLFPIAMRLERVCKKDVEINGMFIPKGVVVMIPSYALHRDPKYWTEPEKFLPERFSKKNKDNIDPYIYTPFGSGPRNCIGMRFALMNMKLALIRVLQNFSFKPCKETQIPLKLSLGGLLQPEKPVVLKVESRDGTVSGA

[19] = in vivo; conditions: mouse, brain / blood, po, 3 mg/kg
Description: Ratio of drug level in brain to blood in mouse at 3 mg/kg, po at 1 hr post dose administered through cassette dosing

[20] = molecular target: Cytochrome P450 2C9 (Homo sapiens, UniProt P11712); test: Inhibition of CYP2C9 (unknown origin); assay type: ADME
Cytochrome P450 2C9, sequence (P11712 whole entry): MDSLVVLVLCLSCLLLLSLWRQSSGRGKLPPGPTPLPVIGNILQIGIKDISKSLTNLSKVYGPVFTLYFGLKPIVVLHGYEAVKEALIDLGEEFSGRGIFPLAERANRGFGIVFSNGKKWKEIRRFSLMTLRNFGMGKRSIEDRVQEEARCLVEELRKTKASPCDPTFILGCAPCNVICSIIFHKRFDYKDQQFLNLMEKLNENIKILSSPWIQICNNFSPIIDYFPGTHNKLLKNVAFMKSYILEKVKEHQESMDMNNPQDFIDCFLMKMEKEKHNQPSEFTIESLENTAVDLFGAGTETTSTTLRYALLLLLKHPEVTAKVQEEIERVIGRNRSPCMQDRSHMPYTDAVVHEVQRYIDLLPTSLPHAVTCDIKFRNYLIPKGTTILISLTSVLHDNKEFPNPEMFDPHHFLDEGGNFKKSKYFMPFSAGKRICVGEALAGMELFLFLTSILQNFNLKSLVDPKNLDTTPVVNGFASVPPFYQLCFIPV

[21] = Plasma protein binding in mouse; assay type: ADME; conditions: read-out: PPB
[22] = molecular target: Cytochrome P450 2D6 (Homo sapiens, UniProt P10635); test: Inhibition of CYP2D6 (unknown origin); assay type: ADME
Cytochrome P450 2D6, sequence (P10635 whole entry): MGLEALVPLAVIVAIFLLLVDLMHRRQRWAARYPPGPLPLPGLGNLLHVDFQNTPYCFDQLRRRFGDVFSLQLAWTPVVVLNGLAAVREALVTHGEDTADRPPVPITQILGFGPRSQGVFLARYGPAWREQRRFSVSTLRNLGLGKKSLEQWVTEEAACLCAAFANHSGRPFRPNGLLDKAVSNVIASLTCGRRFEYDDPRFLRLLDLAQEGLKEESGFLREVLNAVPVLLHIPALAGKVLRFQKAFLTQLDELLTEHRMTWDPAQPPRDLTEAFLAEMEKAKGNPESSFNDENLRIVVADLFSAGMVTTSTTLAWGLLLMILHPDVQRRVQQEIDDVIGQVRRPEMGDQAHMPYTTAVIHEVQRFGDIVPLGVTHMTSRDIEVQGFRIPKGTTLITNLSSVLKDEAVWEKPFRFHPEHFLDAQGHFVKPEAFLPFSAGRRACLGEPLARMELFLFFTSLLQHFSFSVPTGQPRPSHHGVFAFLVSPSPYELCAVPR

[23] = Blood clearance in mouse at 1 mg/kg, iv administered through cassette dosing; assay type: ADME, organism-based
[24] = system: Blood; test: Dose-normalized AUC in mouse blood at 3 mg/kg, po administered through cassette dosing; assay type: ADME, organism-based; conditions: in vivo
[25] = Plasma protein binding in human; assay type: ADME, cell-free; conditions: read-out: PPB (converted)
[26] = Terminal half life in mouse at 1 mg/kg, iv administered through cassette dosing; assay type: ADME, organism-based; conditions: in vivo, read-out: beta t1/2 (converted)
[27] = Drug metabolism in mouse liver microsomes assessed as oxidation at benzylic position of amide; assay type: ADME
[28] = Drug metabolism in mouse liver microsomes assessed as oxidation at phenyl ring in 3-position of core moiety; assay type: ADME
[29] = species on record: Mus musculus; test: Drug metabolism in mouse assessed as oxidation at phenyl ring in 3-position of core moiety; assay type: ADME, organism-based; conditions: in vivo
[30] = system: Liver microsome; test: Drug metabolism in human liver microsomes assessed as oxidation at benzylic position of amide; assay type: ADME
[31] = system: Liver microsome; test: Drug metabolism in human liver microsomes assessed as oxidation at phenyl ring in 3-position of core moiety; assay type: ADME
[32] = species on record: Mus musculus; test: Drug metabolism in mouse assessed as oxidation at benzylic position of amide; assay type: ADME, organism-based; conditions: in vivo

Ratio Ki [3]: 0.77
SMILES: COc1cccc(C(C)NC(=O)COc2cc(C(F)(F)F)c3c(-c4ccccc4)nn(C)c3n2)c1 (racemic)

Ratio Ki [3]: 1.67
SMILES: CC(NC(=O)COc1cc(C(F)(F)F)c2c(-c3ccccc3)nn(C)c2n1)c1cccnc1 (racemic)

Ratio Ki [3]: 9.64
SMILES: COc1ccc(CNC(=O)COc2cc(C(F)(F)F)c3c(-c4ccccc4)nn(C)c3n2)cc1

Ki [5]: 660 nM | microsomal CLint [4]: 924 µL/min/mg | Ki ([6]; read-out: Ki): 367 nM | solubility thermodynamic [1]: 40 µM (≈ 18.2 µg/mL) | logP [2]: 3.5
SMILES: C[C@H](NC(=O)COc1cc(C(F)(F)F)c2c(-c3ccccn3)nn(C)c2n1)c1ccccc1

Ratio Ki [3]: 2.41
SMILES: COc1ccc([C@@H](C)NC(=O)COc2cc(C(F)(F)F)c3c(-c4ccccc4)nn(C)c3n2)cc1

efflux ratio [7]: 1 | Ki [8]: 4 nM | Ki [9]: 8 nM | microsomal CLint [10]: 190 µL/min/mg | Fu [12]: < 1% | microsomal CLint [13]: 478 µL/min/mg | bioavailability [14]: 3% | microsomal CLint [4]: 147 µL/min/mg | Ratio Ki [3]: 7 | Vd [15]: 2 L/kg | Cmax/dose [16]: 4 nM | log(permeability) [17]: -4 | IC50 [18]: 8000 nM | Kp at 1 h [19]: 1.15 | solubility thermodynamic [1]: < 4 µM | IC50 [20]: 5000 nM | fraction unbound [21]: < 0.01 | IC50 [22]: > 20000 nM | clearance [23]: 65 mL/min/kg | AUC/dose [24]: 17 nM·h | fraction unbound [25]: < 0.01 | logP [2]: 4.6 | half-life [26]: 66 min
SMILES: COc1ccc([C@H](C)NC(=O)COc2cc(C(F)(F)F)c3c(-c4ccccc4)nn(C)c3n2)cc1
IC50 [11]: > 30000 nM

Ratio Ki [3]: 14.5
SMILES: COc1ccc(C(C)NC(=O)COc2cc(C(F)(F)F)c3c(-c4ccccc4)nn(C)c3n2)cc1 (racemic)

Drug metabolism [27]: metabolite_detected | Drug metabolism [28]: metabolite_detected | Drug metabolism [29]: metabolite_detected | Drug metabolism [30]: metabolite_detected | Ratio Ki [3]: 1.62 | Drug metabolism [31]: metabolite_detected | Drug metabolism [32]: metabolite_detected | solubility thermodynamic [1]: < 4 µM | logP [2]: 4.7
SMILES: C[C@H](NC(=O)COc1cc(C(F)(F)F)c2c(-c3ccccc3)nn(C)c2n1)c1ccccc1

microsomal CLint [10]: 433 µL/min/mg | Fu [12]: < 1% | microsomal CLint [13]: 330 µL/min/mg | bioavailability [14]: 21% | microsomal CLint [4]: 603 µL/min/mg | Vd [15]: 0.5 L/kg | Cmax/dose [16]: 300 nM | log(permeability) [17]: -4.1 | IC50 [18]: > 20000 nM | solubility thermodynamic [1]: < 4 µM | IC50 [20]: > 20000 nM | fraction unbound [21]: < 0.01 | IC50 [22]: > 20000 nM | clearance [23]: 20 mL/min/kg | AUC/dose [24]: 371 nM·h | fraction unbound [25]: 0.04 | logP [2]: 4.2 | half-life [26]: 30 min
SMILES: Cc1n[nH]c(C)c1[C@H](C)NC(=O)COc1cc(C(F)(F)F)c2c(-c3ccccc3)nn(C)c2n1

Ki [6]: Not Active
SMILES: CC(NC(=O)COc1cc(C(F)(F)F)c2c(-c3ccccc3)nn(C)c2n1)c1ccccn1 (racemic)

Ratio Ki [3]: 1.73
SMILES: COc1ccccc1C(C)NC(=O)COc1cc(C(F)(F)F)c2c(-c3ccccc3)nn(C)c2n1 (racemic)

Ki [8]: 168 nM | Ki [9]: 88 nM | Ki [5]: 120 nM | Ratio Ki [3]: 1.54 | Ki ([6]; read-out: Ki): 78 nM
SMILES: CC(NC(=O)COc1cc(C(F)(F)F)c2c(-c3ccccc3)nn(C)c2n1)c1ccccc1 (racemic)

The remaining lines, values behind:

SMILES: Cc1ccc([C@H](C)NC(=O)COc2cc(C)c3c(-c4cnccn4)nn(C)c3n2)cc1
solubility thermodynamic [1]: 115 µM (≈ 47.9 µg/mL) | logP [2]: 3.9

SMILES: Cc1nn(C)c(C)c1C(C)NC(=O)COc1cc(C(F)F)c2c(-c3ccccc3)nn(C)c2n1 (racemic)
solubility thermodynamic [1]: 248 µM (≈ 116 µg/mL) | logP [2]: 3.9

SMILES: C[C@H](NC(=O)CNc1cc(C(F)(F)F)c2c(-c3ccccc3)nn(C)c2n1)c1ccccc1
Ratio Ki [3]: 0.31

SMILES: Cc1nn(C)c(C)c1C(C)NC(=O)COc1cc(C(F)F)c2c(C3CC3)nn(C)c2n1 (racemic)
microsomal CLint [4]: 660 µL/min/mg | solubility thermodynamic [1]: 657 µM (≈ 284 µg/mL) | logP [2]: 2.8

SMILES: Cc1cc2c(cn1)[C@@H](NC(=O)COc1cc(C)c3c(C4CC4)nn(C)c3n1)CC2
microsomal CLint [4]: 924 µL/min/mg | solubility thermodynamic [1]: 25 µM (≈ 9.79 µg/mL) | logP [2]: 3.5

SMILES: Cc1ccc([C@H](C)NC(=O)COc2cc(C)c3c(-c4ncccn4)nn(C)c3n2)cc1
Ki ([6]; read-out: Ki): 5 nM | solubility thermodynamic [1]: 43 µM (≈ 17.9 µg/mL) | logP [2]: 3.3

SMILES: C[C@H](NC(=O)COc1cc(C(F)(F)F)c2c(-c3ccccc3)n[nH]c2n1)c1ccccc1
Ratio Ki [3]: 4.65

SMILES: Cc1ccc2c(n1)CC[C@@H]2NC(=O)COc1cc(C)c2c(C3CC3)nn(C)c2n1
bioavailability [14]: 16% | Ratio Ki [3]: 4.95 | Vd [15]: 0.4 L/kg | Cmax/dose [16]: 115 nM | Kp at 1 h [19]: 0.13 | clearance [23]: 66 mL/min/kg | AUC/dose [24]: 106 nM·h | half-life [26]: 18 min

SMILES: Cc1nn(C)c(C)c1[C@H](C)NC(=O)COc1cc(C(F)(F)F)c2c(-c3ccccc3)nn(C)c2n1
Ki [5]: 7 nM | Ratio Ki [3]: 0.7 | Ki ([6]; read-out: Ki): 10 nM
